The source of these data is paper PMC4809036, “Antitumor effects of cecropin B-LHRH’ on drug-resistant ovarian and endometrial cancer cells” (BMC Cancer, 2016).

Entries after “also recorded” stand apart in the source; their conditions may differ. No end group written: not given here.

The test system of data set [1] is ES-2 tumors xenografted into nude mice. Kind of data set: ES-2 xenograft study in nude mice. The format is in vivo, BALB/c-nu mice. Here is the method:
(§1) Five- to six-week-old female (15–20 g) athymic nude mice (BALB/c-nu) were obtained from Shanghai SLAC Laboratory Animal Corporation, China. The animals were housed in sterile cages under laminar flow hoods in a temperature controlled room with a 12-hour light/12-hour dark cycle, and fed autoclaved chow and water ad libitum. All experiments were carried out in accordance with the guidelines for the welfare ethics of experimental animals. All the animal-related procedures were approved by the Animal Ethical Committee of Zhejiang University.
(§2) Cultured ES-2 ovarian cancer cells were resuspended at 1 × 10^7/ml and inoculated subcutaneously into the nude mouse armpit. When tumors reached 60 mm^3, they were extracted, cut into pieces of about 2 mm^3, and inoculated subcutaneously into the nude mouse armpit. When the tumors reached an average volume of about 100 mm^3, the mice were randomly divided into five groups (n = 10). Groups 1–3 received intra-tumor injection of CB-LHRH’ twice daily at 12.5, 25 or 50 mg/kg^.d, respectively.
Tumor volumes were assessed every 3 d as 0.5 × length × width^2 (where length is the longest diameter across the tumor and width the corresponding perpendicular diameter as measured by calipers). On day 13, 4 h after the last dose, mice were sacrificed, and tumors excised and weighed; tumor growth inhibition rate was derived as (1-tumor weight treated/tumor weight control) × 100 %.
Anti-tumor activity was evaluated as relative growth of tumor volume (T/C, value), the mean relative tumor volume (RTV) for the treatment group divided by the mean RTV for the control group, as follows: T/C (%) = TRTV/CRTV X 100 %. RTV = Vt/V0, where Vt is the volume on any given day, and V0 the volume at treatment start.

In data set [2] the test system is four cancer cell lines (SKOV-3, ES-2, NIH:OVCAR-3, HEC-1A). Details: method as in ATCC Global Bioresource Center (USA). As to conditions: ref ATCC Global Bioresource Center (USA); cited from earlier work.
The test system of another data set is Acinetobacter baumannii. Kind of data set: Antibacterial assay (agar dilution), Acinetobacter baumannii. In kind it is cell-based. Particulars: Muller Hinton’s agar, 22 h at 35 °C, clinical isolates. The method, then:
(§3) The antibacterial activity of CB-LHRH’ was evaluated by the agar dilution method. Muller Hinton’s agar medium plates containing serial dilutions of CB-LHRH’ were inoculated with 2 μL of tenfold-diluted 0.5 McF bacteria and incubated for 22 h at 35 °C. The lowest concentration of CB-LHRH’ inhibiting bacterial growth was considered the minimal inhibitory concentration (MIC). Nine clinical strains of the following species were evaluated: Staphylococcus aureus, Klebsiella pneumoniae, Escherichia coli, Enterobacter cloacae, Pseudomonas aeruginosa, and Acinetobacter baumannii.
On the technique in general: In agar dilution the substance is mixed into plates at graded concentrations.

A further data set relates to Escherichia coli. Kind of data set: Antibacterial assay (agar dilution), Escherichia coli. The format is cell-based. As to conditions: Muller Hinton’s agar, 22 h at 35 °C, clinical isolates. The method, then: as §3
The subject of another data set is Enterobacter cloacae. The data set can be described thus: Antibacterial assay (agar dilution), Enterobacter cloacae. The format is cell-based. As to conditions: Muller Hinton’s agar, 22 h at 35 °C, clinical isolates. Here is the method: as §3
The subject of another data set is Klebsiella pneumoniae. Kind of data set: Antibacterial assay (agar dilution), Klebsiella pneumoniae. The format is cell-based. Particulars: Muller Hinton’s agar, 22 h at 35 °C, clinical isolates. The method, then: as §3
Another data set concerns Pseudomonas aeruginosa. The data set can be described thus: Antibacterial assay (agar dilution), Pseudomonas aeruginosa. The format is cell-based. Particulars: Muller Hinton’s agar, 22 h at 35 °C, clinical isolates, listed as Cecropin B-LHRH’. The method, then:
as §3

In a further data set the test system is Staphylococcus aureus. Kind of data set: Antibacterial assay (agar dilution), Staphylococcus aureus. Particulars: Muller Hinton’s agar, 22 h at 35 °C, clinical isolates, listed as Cecropin B-LHRH’. In kind it is cell-based. Here is the method: as §3
The next data set has as its system nude mice. Kind of data set: General toxicity (survival, body weight) in ES-2 xenograft mice. In kind it is in vivo, BALB/c-nu mice. Particulars: for surviving mice: intra-tumoral, twice daily, thirteen days later, n = 10 (PBS: 9 survived). Here is the method: as §1, §2
General toxicity was evaluated based on body weight, measured weekly.

For the next data set, the system named is guinea pigs. Kind of data set: Hypersensitization test in guinea pigs. Particulars: n = 6.
For another data set, the target named is T1, LHRH receptor (LHRHr) (Rattus norvegicus, UniProt P30969).
T1 chain: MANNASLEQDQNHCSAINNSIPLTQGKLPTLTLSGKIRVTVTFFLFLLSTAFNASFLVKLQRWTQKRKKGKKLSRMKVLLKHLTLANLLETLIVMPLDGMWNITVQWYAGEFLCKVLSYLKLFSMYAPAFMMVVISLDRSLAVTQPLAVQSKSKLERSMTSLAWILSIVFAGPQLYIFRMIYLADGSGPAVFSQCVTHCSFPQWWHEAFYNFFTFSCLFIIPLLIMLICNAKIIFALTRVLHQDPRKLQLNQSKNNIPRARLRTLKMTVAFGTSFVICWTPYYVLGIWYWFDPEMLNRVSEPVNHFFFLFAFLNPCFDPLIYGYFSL
The data set can be described thus: radioligand saturation binding (Scatchard), rat pituitary membranes.

Experimental for guinea pigs: Under approved animal research protocol standards, the hypersensitive reaction against CB-LHRH’ (2 mg/mL, equal to 438 μM) was assessed in guinea pigs. According to the Chinese Pharmacopoeia, six animals with an average weight of 250 g (XiFengYang Special Economic Animal Farm, Huzhou, China) were administered an intraperitoneal injection of 0.5 mL of CB-LHRH’ every other day three times, while three additional animals received PBS physiological saline injections. Of the six animals administered CB-LHRH’, three received an intravenous injection of 1 mL CB-LHRH’ at day 15, and the remaining three at day 22. Allergic reactions, such as piloerection, sneezing, lacrimation, dyspnoea, and hyperspasmia, were then monitored for the next 30 min.

A word on the T/C: it is the result in the treated group divided by that in the control group, in per cent. Turning to `N.N.[Cl][Pt][Cl]` [Cisplatin], the “Tumor Volume, d 1” value in data set [1] (cisplatin 0.67 mg/kg.d (2 mg/kg once every 3 days), d 1, Mean ± SD, n = 10 per group) was 343.91 ± 123.06 mm^3. For the same molecule, in data set [1] (cisplatin 0.67 mg/kg.d (2 mg/kg once every 3 days), d 13, Mean ± SD, ** P < 0.01 vs PBS), the “Tumor Volume, d 13” value is reported as 913.16 ± 142.64** mm^3. The molecule also showed a T/C in data set [1] (cisplatin 0.67 mg/kg.d (2 mg/kg once every 3 days), d 13, RTV treated/RTV PBS control, ≤60 % = active) of 42%. In addition, the “Tumor Weight” value in data set [1] (cisplatin 2 mg/kg once every 3 days, d 13, Mean ± SD, **P < 0.01 vs PBS) is 1.09 ± 0.25 ** g. Further, the “resistance of the cell lines to the drug” value in data set [2] is given as “resistant”.
As to `COc1cccc2c1C(=O)c1c(O)c3c(c(O)c1C2=O)C[C@@](O)(C(=O)CO)C[C@@H]3O[C@H]1C[C@H](N)[C@H](O)[C@H](C)O1` [doxorubicin], the “resistance of the cell lines to the drug” value in data set [2] is “resistant”.
In general, MIC refers to the lowest concentration that inhibits growth of the organism. For “KWKVFKKIEKMGRNIRNGIVKAGPAIAVLGEAKALSYGLRPG [CB-LHRH’]”, the MIC was 1.93 to 7.72 µM in the data set on Acinetobacter baumannii; 3.86 to 7.72 µM in the data set with Escherichia coli; 3.86 to 7.72 µM with Enterobacter cloacae; 3.86 to 7.72 µM against Klebsiella pneumoniae; “> = 15.44 μM” against Pseudomonas aeruginosa; over 15.44 µM against Staphylococcus aureus. In addition, the surviving mice in the data set with nude mice (CB-LHRH’ 12.5 mg/kg.d) was 8; with nude mice (CB-LHRH’ 25 mg/kg.d), 9; in the data set on nude mice (CB-LHRH’ 50 mg/kg.d), 7. The animal weights entry in the data set with nude mice (CB-LHRH’ intra-tumoral, by day 13) is reported as “no differences were found in animal weights”. Further, the hypersensitivity / anaphylaxis entry with guinea pigs (0.5 mL of 2 mg/mL i.p. every other day three times, then 1 mL i.v. at day 15 or 22, monitored 30 min, data not shown) is reported as “no hypersensitivity; also recorded: No anaphylaxis occurred in any of the six guinea pigs; also recorded: no hypersensitive reactions in guinea pigs”. Moreover, the survival entry in the data set with guinea pigs (0.5 mL of 2 mg/ml i.p. every other day three times) is “survived the 15 days of treatment”.
Turning to diphtheria toxin, the “resistance of the cell lines to the drug” value in [2] is “resistant”.
Usually Kd stands for the free concentration of one partner at which half of the binding sites on the other are occupied at equilibrium, for simple one-to-one binding. Consider KWKVFKKIEKMGRNIRNGIVKAGPAIAVLGEAKALSYGLRPG (also: 125I-labelled) [Cecropin B-LHRH' (CB-LHRH')], for which, in the data set with LHRH receptor (LHRHr), the Kd came to 0.253 nM. That is a sub-nanomolar value.
